The values that follow come from patent US20230355617A1, “SMALL MOLECULE INHIBITORS OF LEMUR TYROSINE KINASE 3” (The University of Sussex, priority 2020, published 2023).

By IC50 is commonly meant the concentration needed to halve the response being measured. By Cmax is commonly meant the highest concentration seen after dosing.

Data set [1] deals with T1, LMTK3 (Homo sapiens, UniProt Q96Q04).
T1 construct: The wt kinase domain of LMTK3 (aa 134 to aa 444) was cloned into pOPINEneo; made in house; host or cells: Spodoptera frugiperda Sf9 (baculovirus)
T1 sequence (Q96Q04 105-415): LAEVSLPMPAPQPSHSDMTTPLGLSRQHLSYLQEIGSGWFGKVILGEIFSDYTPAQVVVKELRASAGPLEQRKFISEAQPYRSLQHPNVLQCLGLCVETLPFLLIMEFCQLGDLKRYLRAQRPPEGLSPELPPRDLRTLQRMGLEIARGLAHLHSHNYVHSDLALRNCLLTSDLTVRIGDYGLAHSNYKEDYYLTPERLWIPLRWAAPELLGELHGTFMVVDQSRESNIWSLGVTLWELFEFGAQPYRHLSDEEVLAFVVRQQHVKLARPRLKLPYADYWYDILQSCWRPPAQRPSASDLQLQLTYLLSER
Nature of the data set: 32P γ-ATP in vitro kinase assay, phosphorylation of HSP27 by LMTK3. Type of data set: biochemical. The conditions noted are these: in vitro kinase assay; read-out: Approximate IC50.

A further data set relates to FDCP1-parental. The data set can be described thus: FDCP1 cell-based model, parental cells. Details: species or system murine.
Data set [2] has as its target T2, LMTK3 (Homo sapiens, UniProt Q96Q04).
T2 construct: endogenous in cells; host or cells: MCF7, T47D, MDA-MB-231
T2 sequence (Q96Q04 21-1460): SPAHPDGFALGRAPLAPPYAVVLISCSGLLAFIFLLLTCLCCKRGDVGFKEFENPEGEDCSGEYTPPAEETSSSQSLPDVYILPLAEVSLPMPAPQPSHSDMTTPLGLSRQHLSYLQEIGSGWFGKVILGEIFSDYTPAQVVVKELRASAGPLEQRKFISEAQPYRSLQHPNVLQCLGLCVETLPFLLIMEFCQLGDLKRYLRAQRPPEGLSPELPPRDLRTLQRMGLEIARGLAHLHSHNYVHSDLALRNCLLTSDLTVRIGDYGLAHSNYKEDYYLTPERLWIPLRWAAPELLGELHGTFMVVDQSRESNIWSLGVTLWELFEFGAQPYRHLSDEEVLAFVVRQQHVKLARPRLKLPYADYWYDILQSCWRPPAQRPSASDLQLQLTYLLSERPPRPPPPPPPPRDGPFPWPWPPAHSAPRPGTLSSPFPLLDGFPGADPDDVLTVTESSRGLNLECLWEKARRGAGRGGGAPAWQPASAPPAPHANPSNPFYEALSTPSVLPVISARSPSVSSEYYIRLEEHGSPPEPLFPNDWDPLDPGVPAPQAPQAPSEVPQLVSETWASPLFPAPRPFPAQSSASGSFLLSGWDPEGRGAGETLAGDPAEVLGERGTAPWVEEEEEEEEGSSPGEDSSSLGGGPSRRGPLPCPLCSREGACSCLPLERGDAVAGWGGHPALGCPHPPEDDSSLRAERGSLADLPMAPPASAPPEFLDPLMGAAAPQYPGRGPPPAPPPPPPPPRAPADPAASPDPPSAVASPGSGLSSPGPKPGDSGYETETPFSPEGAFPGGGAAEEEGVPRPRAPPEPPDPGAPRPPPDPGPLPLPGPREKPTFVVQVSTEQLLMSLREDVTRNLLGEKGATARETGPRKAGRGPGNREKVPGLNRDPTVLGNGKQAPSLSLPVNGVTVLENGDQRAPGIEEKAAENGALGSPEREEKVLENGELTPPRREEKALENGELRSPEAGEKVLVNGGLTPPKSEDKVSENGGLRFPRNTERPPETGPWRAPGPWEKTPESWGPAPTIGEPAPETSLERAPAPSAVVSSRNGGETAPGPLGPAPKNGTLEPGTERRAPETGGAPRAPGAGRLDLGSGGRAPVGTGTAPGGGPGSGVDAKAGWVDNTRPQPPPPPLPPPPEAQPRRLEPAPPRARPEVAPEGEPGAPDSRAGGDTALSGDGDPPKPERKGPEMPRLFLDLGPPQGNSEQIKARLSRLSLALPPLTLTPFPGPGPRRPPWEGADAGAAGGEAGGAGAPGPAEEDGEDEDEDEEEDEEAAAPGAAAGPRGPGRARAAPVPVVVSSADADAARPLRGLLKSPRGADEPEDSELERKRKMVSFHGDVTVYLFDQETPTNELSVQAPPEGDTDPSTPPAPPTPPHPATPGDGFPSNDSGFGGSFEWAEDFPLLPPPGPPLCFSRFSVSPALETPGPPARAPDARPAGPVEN
Nature of the data set: Western blotting of LMTK3 protein in BC cell lines. Type of data set: cell-based. On the technique in general: In western blotting, separated proteins are transferred to a membrane and probed.

Another data set deals with ERα. The data set can be described thus: Western blotting of ERα protein in BC cell lines. The conditions noted are these: MCF7, T47D, MDA-MB-231. The data set is classed as cell-based, human.
Data set [3] is described as follows: Pharmacokinetics after single IV, IP or PO dose. The data set is classed as in vivo, mice.

Read-outs that look alike come from different tables or passages of the source. Where a SMILES comes first, the peptide text is derived from it. The star is where a group is joined. Cbz = O=C(OCc1ccccc1)*

For `FC(F)(F)Oc1cccc(-c2cnc3ccc(-c4ccccn4)nn23)c1` [Compound 337-1], the IC50 at LMTK3 [1] came out at 0.4 µM.
In the case of `FC(F)(F)Oc1cccc(-c2cnc3ccc(Cl)nn23)c1`, the concentration for half-maximal inhibition (IC50) in the data set with FDCP1-parental (Mus musculus, FDC-P1, read-out: FDCP1-parental IC50) is greater than 10 µM.
Take `CC(C)C[C@@H](C=O)NC(=O)[C@H](CC(C)C)NC(=O)[C@H](CC(C)C)NC(=O)OCc1ccccc1` [MG132, reference compound] (Cbz-Leu-Leu-Leu-aldehyde): on LMTK3 [2] (10 μM MG132 4 h, then 10 μM C28 24 h), the “effect on C28-induced downregulation of LMTK3” value is reported as “able to prevent C28-induced downregulation of LMTK3”.
`FC(F)(F)Oc1cccc(-c2cnc3ccc(-c4ccncc4)nn23)c1` [Compound C28, 6-(Pyridin-4-yl)-3-(3-(trifluoromethoxy)phenyl)imidazo[1,2-b]pyridazine]: the ERα protein levels entry in the data set with ERα is listed as “decreased protein levels of ERα”. For the same compound, on LMTK3 [2] (MCF7, T47D, MDA-MB-231), the “inhibition of LMTK3 protein levels in cancer cell lines” value is reported as “best inhibitor”. Besides, at LMTK3 [2] (MCF7, T47D, MDA-MB-231, increasing concentrations, different time points), the LMTK3 protein levels entry is “time and dose-dependent degradation of LMTK3”. Further, at LMTK3 [2] (MCF7, 10 μM, 24 h), the LMTK3 ubiquitination result is “increased LMTK3 ubiquitination”. Moreover, the peak concentration (Cmax) in data set [3] (IP 10 mg/kg) came out at 839 ng/mL; in data set [3] (IV 1 mg/kg), 185 ng/mL; in data set [3] (IV 5 mg/kg, plasma) it was 1533 ng/mL; in data set [3] (PO) it was 632 ng/mL. In addition, the T1/2 is given as roughly 59 min in data set [3] (IP 10 mg/kg), roughly 10 min in data set [3] (IV 5 mg/kg) and roughly 62 min in data set [3] (PO). Also, in data set [3] (IV 5 mg/kg), the “lethality of IV dose” value is listed as “lethal for some mice”. Besides, in data set [3] (IV 5 mg/kg, plasma), the “time of peak concentration” value is listed as 5 min. Further, the “peroral bioavailability (F)” value in data set [3] (based on incomplete data from 5 mg/kg IV group) came out at 54%.
As for `Cc1ccc(-c2ccc3ncc(-c4cccc(OC(F)(F)F)c4)n3n2)cc1`, the half-inhibitory concentration (IC50) with FDCP1-parental (Mus musculus, FDC-P1; read-out: FDCP1-parental IC50) is greater than 10 µM.
